Test results taken from paper PMC8203801 (Communications Biology, 2021).

Biological target: HSA (Homo sapiens, UniProt P02768)
Experiment: Dansylsarcosine (DS) binding to prepared HSA, fluorescence titration
Details: range over samples
Procedure: Prepared HSA was diluted with phosphate-buffered saline (PBS) to a final concentration of 10 µmol/L, and 100 µL of this dilution was applied to a flat-bottomed, half area, polystyrene, black 96-well plate (Greiner Bio-One, Kremsmuenster, Austria). […] The resulting fluorescence was measured using FLUOstar OPTIMA microplate reader (BMG LABTECH, Ortenberg, Germany). Fluorescence excitation and emission detection were performed at 355 nm and 460 nm, respectively. Binding curves were fitted applying non-linear regression using GraphPad Prism Software (Version 5; GraphPad Software, San Diego, CA, USA) after subtraction of non-specific binding. Dissociation constants (Kd) were calculated at DS concentrations, where half-maximal fluorescence was reached.

Sequence of HSA (P02768 25-609): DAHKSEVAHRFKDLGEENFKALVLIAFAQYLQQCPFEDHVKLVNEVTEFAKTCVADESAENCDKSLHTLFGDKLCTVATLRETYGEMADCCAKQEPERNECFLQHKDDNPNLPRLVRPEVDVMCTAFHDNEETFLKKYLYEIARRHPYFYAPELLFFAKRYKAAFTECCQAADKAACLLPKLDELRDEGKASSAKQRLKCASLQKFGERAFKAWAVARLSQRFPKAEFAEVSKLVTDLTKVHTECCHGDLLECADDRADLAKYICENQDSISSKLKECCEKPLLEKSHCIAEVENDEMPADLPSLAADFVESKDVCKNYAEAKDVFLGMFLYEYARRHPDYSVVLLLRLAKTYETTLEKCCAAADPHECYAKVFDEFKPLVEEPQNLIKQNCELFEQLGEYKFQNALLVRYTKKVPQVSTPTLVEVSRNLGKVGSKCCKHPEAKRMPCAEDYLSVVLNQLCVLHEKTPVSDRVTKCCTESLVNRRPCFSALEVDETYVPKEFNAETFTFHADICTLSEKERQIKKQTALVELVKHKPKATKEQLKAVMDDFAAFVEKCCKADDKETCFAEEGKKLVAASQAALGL

CN(C)c1cccc2c(S(=O)(=O)N(C)CC(=O)O)cccc12 [dansylsarcosine]
Kd (binding of dansylsarcosine to HSA of healthy donors): 12 to 18 µM | Kd (binding of dansylsarcosine to patients' HSA (chronic liver failure)): 13 to 28 µM
